Structures can show the parent of a compound that is named as a salt. Where two headings read alike, the source gives them in different places.
Legend:
[1] = oral; cited from earlier work
[2] = Octanol-water partition, shake flask (log Papp); type: physicochemical; conditions: pH 7.4, Tris buffer
Description: The partition values between octanol and water (at pH 7.4, Tris buffer) were determined using a “shake flask” direct method of measuring log Papp values (Sangster et al., Octanol-Water Partition Coefficients: Fundamentals and Physical Chemistry; John Wiley and Sons: West Sussex, England, 1997; Vol. 2). The fraction of compound in the octanol is then expressed as log Papp. […] This is likely due to the presence of the aromatic nitrogen, a moderately good hydrogen bond accepter, on the DFT analogs.

iron excretion [3] = conditions: cited from earlier work; for relative percentages of the iron excreted in the bile and urine: rodents
iron excretion [4] = conditions: cited from earlier work; for relative percentages of the iron excreted in the feces and urine: primates
iron excretion [5] = assay: Iron-clearing efficiency in iron-overloaded primates (fecal and urine samples); type: in vivo, Cebus apella monkeys
Description: At least 20 half-lives, 60 days (Wood et al., “The Metabolism of Iron-Dextran Given As a Total-Dose Infusion to Iron Deficient Jamaican Subjects.” Br. J. Hamaetol. 1968, 14, 119-129), elapsed before any of the animals were used in experiments evaluating iron-chelating agents.
Briefly, the collections began 4 days prior to the administration of the test compound and continued for an additional 5 days after the compound was given. Iron concentrations were determined by flame absorption spectroscopy as presented in other publications (Bergeron et al., “A Comparative Evaluation of Iron Clearance Models.” Ann. N.Y. Acad. Sci. 1990, 612, 378-393; Bergeron et al., “Synthesis and Biological Evaluation of Naphthyldesferrithiocin Iron Chelators.” J. Med. Chem. 1996, 39, 1575-1581).
In the text below, the term “iron-clearing efficiency” (ICE) is used as a measure of the amount of iron excretion induced by a chelator. The ICE, expressed as a percent, is calculated as (compound-induced iron excretion/theoretical iron excretion)×100. To illustrate, the theoretical iron excretion after administration of one millimole of desferrioxamine B mesylate (DFO) (FIG. 3), a hexadentate chelator that forms a 1:1 complex with Fe(III), is one milli-g-atom of iron. Two millimoles of desferrithiocin (DFT) (Table 1), a tridentate iron chelator that forms a 2:1 complex with Fe(III), are required for the theoretical excretion of one milli-g-atom of iron. The theoretical iron outputs of the chelators were generated on the basis of a 2:1 compound:iron complex. The efficiencies in the rats and monkeys were calculated as set forth elsewhere (Bergeron et al., “Effects of C-4 Stereochemistry and C-4′ Hydroxylation on the Iron Clearing Efficiency and Toxicity of Desferrithiocin Analogs.” J. Med. Chem. 1999, 42, 2432-2440; Bergeron et al., “HBED: A Potential Alternative to Deferoxamine for Iron-Chelating Therapy.” Blood 1998, 91, 1446-1452).

urinary Kim-1 excretion [6] = conditions: for survival of dosing period: po twice daily 237 μmol/kg/dose (474 μmol/kg/d), up to 7 d, rats with normal iron stores; for renal toxicity (Kim-1, BUN, SCr), summary: rat, in vivo
Description: The compounds were administered to the rats po as their monosodium salts, prepared as described above, twice daily at a dose of 237 μmol/kg/dose (474 μmol/kg/d) for up to 7 d. The studies were performed on rats with normal iron stores. The rats were fasted overnight and were given the first dose of the compound first thing in the morning. The rats were fed ˜3 h post-dose and had access to food for ˜5 h before being fasted overnight.
The rats were housed in individual metabolic cages. […] A baseline (day 0) urine sample was collected and assessed for its Kim-1 content; each animal served as its own control. The urine was collected chilled as previously described (Bergeron et al., “Desferrithiocin Analog Iron Chelators: Iron Clearing Efficiency, Tissue Distribution, and Renal Toxicity.” Biometals, 2011, 24, 239-258).
The chilled urine was collected, vortexed, and warmed to room temperature; any sediment in the samples was allowed to settle. Kim-1 content was assessed using a Rat Kim-1 Rapid Test Kit according to the manufacturer's instructions. The result was read using a ReaScan Test Reader. […] Data are presented as the mean±the standard error of the mean; p-values were generated via a one-tailed Student's t-test in which the inequality of variances was assumed; and a p-value of <0.05 was considered significant.
Assessment of chelator-induced impaired renal function has traditionally relied on the detection of a rise in blood urea nitrogen (BUN) and/or serum creatinine (SCr). However, because of the functional reserve of the kidney, these parameters are often unreliable indicators of acute kidney injury; the ultimate answer requires histopathology. […] BioAssay Works has recently developed RenaStick, a direct lateral flow immunochromato-graphic assay, which allows for the rapid detection (less than 30 minutes) and quantitation of urinary Kim-1 (rat) or KIM-1 (human) excretion (Vaidya et al., “A Rapid Urine Test for Early Detection of Kidney Injury.” Kidney. Int. 2009, 76, 108-114). […] The studies were performed on rats with normal iron stores; each animal served as their own control.

[7] = po once daily 384 μmol/kg/d (100 mg/kg/d), cited from earlier work
[8] = in vivo; cited from earlier work
[9] = system: acetic acid-induced colitis; conditions: rat, in vivo; cited from earlier work
[10] = 1H NMR hydrogen-deuterium exchange study; type: physicochemical; conditions: 25° C., pH 7.0, phosphate buffer (0.1 M)
Description: The ratio of the (unexchanged) to the (original) was measured by the diminution of δ 6.33 (d, H-3′, J=2.3) relative to the integration of δ 6.39 (d, H-5′, J=9.0) at time points to 104 min. […] (unexchanged) to the [I-1] (original) was measured by the diminution of δ 6.41 (d, H-4′, J=2.3) relative to the integration of δ 7.54 (d, H-6′, J=2.3) at time points to 16 h. Plots of the natural log of [compound]
Quinone formation could result in redox cycling and, at a cellular level, untoward side effects. […] The exchange rate order is understandable.

[11] = Job's plot stoichiometry of Fe(III) complexes; type: binding; conditions: [DFT analog]+[Fe(III)]=1.0 mM, Tris-HCl pH 7.4; theoretical 0.667 for 2:1
Description: Solutions containing DFT analog/Fe(III) at different ratios were prepared such that [DFT analog]+[Fe(III)]=1.0 mM in Tris-HCl buffer at pH 7.4. The theoretical mole fraction maximum for a 2:1 DFT analog:Fe complex is 0.667 (indicated by an arrow).
In each instance, the DFT analogs formed 2:1 complexes with Fe(III). […] A 100 mM Tris HCl buffer was used to maintain the pH at 7.4. Solutions containing different DFT analog/Fe(III) ratios were prepared by mixing appropriate volumes of 1.0 mM DFT analog solution and 1.0 mM Fe(III)-nitriloacetate (NTA) in Tris-HCl buffer. The 1.0 mM Fe(III)-NTA solution was prepared immediately prior to use by dilution of a 41.6 mM Fe(III)-NTA stock solution with the Tris HCl buffer, whereas the DFT analog stock solution was prepared by dissolving the DFT analog as its monosodium salt in Tris HCl buffer at pH 7.4. The Fe(III)-NTA stock solution was prepared by mixing equal volumes of […] of FeCl3 and 180 mM trisodium NTA. The iron content of the Fe(III)-NTA solution was verified by atomic absorption spectrophotometry (AAS).

urinary Kim-1 excretion [12] = conditions: cited from earlier work
[13] = po 150 μmol/kg, solubilized in 40% Cremophor RH-40/water
[14] = po 150 μmol/kg, 40% Cremophor RH-40/water
[15] = po twice daily 237 μmol/kg/dose × 7 d
[16] = po once daily 28 d, once daily 384 μmol/kg/d × 10 d, twice daily 237 μmol/kg/dose × 7 d
[17] = day 8, after 237 μmol/kg twice daily × 7 d

SMILES: COCCOCCOCCOc1cccc(C2=N[C@@](C)(C(=O)O)CS2)c1O [compound 5, (S)-4,5-dihydro-2-[2-hydroxy-3-(3,6,9-trioxadecyloxy)]-4-methyl-4-thiazolecarboxylic acid]
- nephrotoxicity [1]: the renal toxicity virtually disappeared

SMILES: COCCOCCOc1cccc(C2=N[C@@](C)(C(=O)O)CS2)c1O [compound 9]
- LogPapp [2]: −0.96
- Rodent Iron-Clearing Efficiency (%) (iron excretion [3]; po 300 μmol/kg, monosodium salt, 48-h sample collection): 15.1 ± 2.0%
- relative percentages of the iron excreted in the bile and urine (iron excretion [3]; po 300 μmol/kg, monosodium salt, 48 h): 99/1
- Primate Iron-Clearing Efficiency (%) (iron excretion [4]; po 75 μmol/kg): 22.5 ± 6.4%
- relative percentages of the iron excreted in the feces and urine (iron excretion [4]; po 75 μmol/kg): 86/14

SMILES: C[C@]1(C(=O)O)CSC(c2ncccc2O)=N1 [compound 1, desferrithiocin]
- Performance ratio (PR), mean ICEprimates/ICErodents (iron excretion [5]; primates po / rodents po): 2.9
- fold increase of urinary Kim-1 over baseline (urinary Kim-1 excretion [6]; after one day, 237 μmol/kg/dose twice daily po): ~10 fold
- survival of dosing period (urinary Kim-1 excretion [6]): None of the rats survived
- SCr (urinary Kim-1 excretion [6]; two moribund rats sacrificed after four days of 237 μmol/kg/dose twice daily, normal 0.4-1): 5.1 ± 0.3 mg/dL
- BUN (urinary Kim-1 excretion [6]; two moribund rats sacrificed after four days of 237 μmol/kg/dose twice daily, normal 9-30): 139 ± 8 mg/dL
- LogPapp [2]: −1.77
- mortality ([7]; planned 10-d, rats with normal iron stores): All of the rats were dead by day 5
- nephrotoxicity [7]: severely nephrotoxic
- Rodent Iron-Clearing Efficiency (%) (iron excretion [3]; [13]): 5.5±3.2%
- relative percentages of the iron excreted in the bile and urine (iron excretion [3]; [14]): 93/7
- nephrotoxicity [1]: severe nephrotoxicity
- Primate Iron-Clearing Efficiency (%) (iron excretion [4]; po 150 μmol/kg): 16.1±8.5%
- relative percentages of the iron excreted in the feces and urine (iron excretion [4]; po 150 μmol/kg): 78/22

SMILES: C[C@]1(C(=O)O)CSC(c2ccccc2O)=N1 [compound 2, desazadesferrithiocin]
- Performance ratio (PR), mean ICEprimates/ICErodents (iron excretion [5]; primates po / rodents po): 8.0
- LogPapp [2]: −0.34
- Rodent Iron-Clearing Efficiency (%) (iron excretion [3]; [13]): 2.7±0.5%
- relative percentages of the iron excreted in the bile and urine (iron excretion [3]; [14]): 100/0
- gastrointestinal toxicity [8]: serious gastrointestinal (GI) problems
- nephrotoxicity [8]: not overtly nephrotoxic
- Primate Iron-Clearing Efficiency (%) (iron excretion [4]; po 75 μmol/kg): 21.5±12%
- relative percentages of the iron excreted in the feces and urine (iron excretion [4]; po 75 μmol/kg): 76/24

SMILES: CC(=O)N(O)CCCCCNC(=O)CCC(=O)N(O)CCCCCNC(=O)CCC(=O)N(O)CCCCCN [DFO, desferrioxamine B mesylate]
- effect on acetic acid-induced colitis [9]: prevent acetic acid-induced colitis

SMILES: COCCOCCOc1cnc(C2=N[C@@](C)(C(=O)O)CS2)c(O)c1 [I-2, (S)-4,5-Dihydro-2-[3-hydroxy-5-(3,6-dioxaheptyloxy)-2-pyridinyl]-4-methyl-4-thiazolecarboxylic Acid]
- survival of dosing period (urinary Kim-1 excretion [6]): All of the animals survived the compound dosing regimen
- BUN and SCr (urinary Kim-1 excretion [6]; [15]): well within the normal range
- urinary Kim-1 excretion versus baseline (day 0) (urinary Kim-1 excretion [6]; [15]): remained within error of that of the baseline (day 0) levels
- renal toxicity (Kim-1, BUN, SCr), summary (urinary Kim-1 excretion [6]): little to no impact on renal function
- LogPapp [2]: −1.59
- Exchange Rate (s^−1), hydrogen-deuterium exchange [10]: No change and none and No exchange
- observed mole fraction maximum in Job's plot [11]: 0.676

SMILES: COCCOCCOc1ccc(C2=N[C@@](C)(C(=O)O)CS2)c(O)c1 [compound 7]
- Performance ratio (PR), mean ICEprimates/ICErodents (iron excretion [5]; primates po, capsule): 1.0
- Performance ratio (PR), mean ICEprimates/ICErodents (iron excretion [5]; primates po, sodium salt): 1.1
- BUN and SCr (urinary Kim-1 excretion [12]; [16]): well within the normal range
- survival of dosing period (urinary Kim-1 excretion [12]; [16]): All of the rats survived the dosing period
- urinary Kim-1 content versus baseline (day 0) (urinary Kim-1 excretion [12]; [16]): stayed within error of this value
- renal toxicity (Kim-1, BUN, SCr), summary (urinary Kim-1 excretion [12]; rat, in vivo): little to no impact on renal function
- LogPapp [2]: −0.89
- Rodent Iron-Clearing Efficiency (%) (iron excretion [3]; po 300 μmol/kg, capsules, 48-h sample collection): 26.7±4.7%
- relative percentages of the iron excreted in the bile and urine (iron excretion [3]; po 300 μmol/kg, capsules, 48 h): 97/3
- nephrotoxicity [1]: the renal toxicity virtually disappeared
- Primate Iron-Clearing Efficiency (%) (iron excretion [4]; po 75 μmol/kg, capsule): 26.3 ± 9.9%
- Primate Iron-Clearing Efficiency (%) (iron excretion [4]; po 75 μmol/kg, sodium salt): 28.7 ± 12.4%
- relative percentages of the iron excreted in the feces and urine (iron excretion [4]; po 75 μmol/kg, capsule): 93/7
- relative percentages of the iron excreted in the feces and urine (iron excretion [4]; po 75 μmol/kg, sodium salt): 83/17

SMILES: C[C@]1(C(=O)O)CSC(c2ncc(O)cc2O)=N1 [I-1, (S)-4,5-Dihydro-2-(3,5-dihydroxy-2-pyridinyl)-4-methyl-4-thiazolecarboxylic Acid]
- BUN (urinary Kim-1 excretion [6]; [17]): 13 ± 2 mg/dL
- SCr (urinary Kim-1 excretion [6]; [17]): 0.5 ± 0.1 mg/dL
- renal toxicity (Kim-1, BUN, SCr), summary (urinary Kim-1 excretion [6]): some nephrotoxicity
- LogPapp [2]: −1.68
- Exchange Rate (s^−1), hydrogen-deuterium exchange [10]: 3.3e-06 s⁻¹
- observed mole fraction maximum in Job's plot [11]: 0.669

— patent US10010535B2, “Desferrithiocin analogs and uses thereof” (University of Florida Research Foundation, Incorporated, priority 2013, dated 2018)
